Reference: ChEMBL document CHEMBL1151610, “Use of potato disc and brine shrimp bioassays to detect activity and isolate piceatannol as the antileukemic principle from the seeds of Euphorbia lagascae” (J Nat Prod, 1984)
Values after ≈ are worked out from the molar mass of the structure shown. Active and inactive are the calls of the source. The rule behind the calls is not given here.

Key:
[1] = Antitumor activity against mouse 3PS cells xenografted mouse assessed as increase in life span at 25 mg/kg; type: functional
[2] = Antitumor activity against mouse 3PS cells xenografted mouse assessed as increase in life span at 12.5 mg/kg; type: functional
[3] = Antitumor activity against mouse 3PS cells xenografted mouse assessed as increase in life span at 6.25 mg/kg; type: functional
[4] = Antitumor activity against mouse 3PS cells xenografted mouse assessed as increase in life span at 3.62 mg/kg; type: functional
[5] = Antitumor activity against mouse 3PS cells xenografted mouse assessed as increase in life span at 50 mg/kg; type: functional
[6] = Toxicity against brine shrimp; type: organism-based; details: artemia, in vivo
[7] = test system: Agrobacterium tumefaciens; experiment: Antitumor activity against Agrobacterium tumefaciens-induced tumor formation at 10 ug/disk by potato disk assay; type: functional
[8] = Cytotoxicity against mouse 9PS cells; type: functional; details: read-out: LC50 (the source's name)
Mus musculus = experiment: Antitumor activity against mouse 3PS cells xenografted mouse assessed as increase in life span; type: functional, cell-based

In the case of Oc1cc(O)cc(/C=C/c2ccc(O)c(O)c2)c1 [PICEATANNOL], the Activity [1] is reported as 123%, the Activity [2] is reported as 118% and the Activity [3] is reported as 114%. It also gave an Activity [4] of 109%, an Activity [5] of 131% and an LC50 [6] of 278 µg/mL (≈ 1140 µM). The Activity [7] was -20% and the CC50 [8] was 2.5 µg/mL (≈ 10.2 µM).

In the case of O=c1ccc2cc(O)c(O)cc2o1 [ESCULETIN], the Activity (Mus musculus) is reported as “inactive”, the LC50 [6] is reported as greater than 1000 µg/mL and the Activity [7] is reported as -13%. It also gave a CC50 [8] of 3.9 µg/mL (≈ 21.9 µM).
